In BigSolDB 2.1:

CCCSc1nc(N[C@@H]2C[C@H]2c2ccc(F)c(F)c2)c2nnn([C@@H]3C[C@H](OCCO)[C@@H](O)[C@H]3O)c2n1
solubility (mole fraction)
Conditions | 273.15 K | 278.15 K | 283.15 K | 288.15 K | 293.15 K | 298.15 K | 303.15 K | 308.15 K | 313.15 K
in 2-butanone | 0.0218 | 0.0269 | 0.0321 | 0.038 | 0.0439 | 0.051 | 0.0584 | 0.0673 | 0.0776
in acetonitrile | 0.000876 | 0.00115 | 0.00144 | 0.00179 | 0.00217 | 0.0026 | 0.00309 | 0.00359 | 0.00416
in cyclohexanone | 0.0265 | 0.0316 | 0.0374 | 0.0437 | 0.051 | 0.0578 | 0.0661 | 0.0744 | 0.0832
in ethanol | 0.00315 | 0.0041 | 0.00503 | 0.00625 | 0.00747 | 0.00881 | 0.0105 | 0.0125 | 0.0149
in ethyl acetate | 0.00409 | 0.00504 | 0.00608 | 0.00716 | 0.00855 | 0.0101 | 0.0118 | 0.0135 | 0.0157
in isobutanol | 0.00148 | 0.00176 | 0.00209 | 0.00243 | 0.00284 | 0.00324 | 0.00373 | 0.00425 | 0.00484
in isopropanol | 0.00251 | 0.00286 | 0.00325 | 0.00364 | 0.00404 | 0.00446 | 0.00496 | 0.00547 | 0.00599
in methanol | 0.00494 | 0.00615 | 0.00741 | 0.0092 | 0.0114 | 0.014 | 0.0169 | 0.0203 | 0.0239
in n-butanol | 0.00289 | 0.00363 | 0.0045 | 0.00542 | 0.00656 | 0.00768 | 0.00895 | 0.0103 | 0.0118
in n-octanol | 0.0021 | 0.00233 | 0.00263 | 0.00292 | 0.00327 | 0.00367 | 0.00406 | 0.00456 | 0.0051
in n-propanol | 0.00268 | 0.00327 | 0.00389 | 0.00462 | 0.00535 | 0.00612 | 0.00692 | 0.00776 | 0.00872
in toluene | 3e-05 | 3.8e-05 | 4.9e-05 | 6.3e-05 | 8e-05 | 0.000102 | 0.00013 | 0.00016 | 0.000196
